From ChEMBL document CHEMBL1158801, “Acylphloroglucinol derivatives from Mahurea palustris” (J Nat Prod, 2005) come the findings set out here.

Active and inactive are the calls of the source. The rule behind the calls is not given here.

In one experiment the target is DNA polymerase beta (Homo sapiens, UniProt P06746). Briefly: Inhibition of human recombinant DNA polymerase beta assessed as fluorescein-12-dCTP incorporation by fluorimetry.
The subject of experiment [1] is Human immunodeficiency virus. Nature of the experiment: Inhibition of HIV reverse transcriptase at 50 uM.

In the case of `CC(C)=CCC1CC2(CC=C(C)C)C(=O)C(C(=O)C(C)C)=C(O)OC2=C(C(CC(=O)O)c2ccccc2)C1(C)C` (stereo not given), the result at DNA polymerase beta was inactive.

Take `CCC(C)C(=O)C1=C(O)OC2=C(C(CC(=O)O)c3ccccc3)C(C)(C)C(CCC(C)(C)NC(C)=O)CC2(CC=C(C)C)C1=O` (stereo not given): the result on DNA polymerase beta was inactive.

As to `CCC(C)C(=O)C1=C(O)OC2=C(C(CC(=O)O)c3ccccc3)C(C)(C)C(CCC(C)(C)O)CC2(CC=C(C)C)C1=O` (stereo not given), the outcome on DNA polymerase beta was inactive. On to `CCC(C)C(=O)C1=C(O)OC2=C(C(CC(=O)O)c3ccccc3)C(C)(C)C(CCC(C)(C)OC(=O)C(F)(F)F)CC2(CC=C(C)C)C1=O` (stereo not given), for which, on DNA polymerase beta, the result was inactive.

Broadly, the IC50 is the concentration that inhibits the measured activity by half. As to `CC(C)=CCC1CC2(CC=C(C)C)C(=O)C(C(=O)CC(C)C)=C(O)OC2=C(C(CC(=O)O)c2ccccc2)C1(C)C` (stereo not given) [MAHUREONE A], the fold change (FC) in experiment [1] came to 2. For the same compound, the IC50 on DNA polymerase beta came to 28 µM. `CCC(C)C(=O)C1=C(O)OC2=C(C(CC(=O)O)c3ccccc3)C(C)(C)C(CC=C(C)C)CC2(CC=C(C)C)C1=O` (stereo not given) [MAHUREONE B]: on DNA polymerase beta, the IC50 is 73 µM.

Regarding `CCCC(CC(=O)O)C1=C2OC(O)=C(C(=O)CC(C)C)C(=O)C2(CC=C(C)C)CC(CC=C(C)C)C1(C)C` (stereo not given) [MAHUREONE D], the IC50 on DNA polymerase beta stood at 12 µM. The same measure, in the same setting: then `CCCC(CC(=O)O)C1=C2OC(O)=C(C(=O)C(C)CC)C(=O)C2(CC=C(C)C)CC(CC=C(C)C)C1(C)C` (stereo not given) [MAHUREONE E], with 342 µM. Same read-out and setting: then `Nc1ccn([C@H]2CC[C@@H](COP(=O)(O)OP(=O)(O)OP(=O)(O)O)O2)c(=O)n1` [ddCTP SODIUM], with 1.3 µM.
